Assay results taken from patent US20030186345A1, “Macromolecular enzyme substrates” (priority 2003, published 2003).
*1 amine or outer side, *2 acyl side, *3 side chain or, on linkers, in order; H or OH if unused. Where a SMILES comes first, the peptide text is derived from it. [ ]: non-standard residue; d: D form. The star is where a group is joined. pNA = O=[N+]([O-])c1ccc(N*)cc1; Suc = O=C(CCC(=O)[*:2])[*:1]

Columns and labels:
thrombin [1] = molecular target: T1, thrombin (Homo sapiens, UniProt P00734); experiment: Cleavage of pNA substrates by thrombin, kinetic parameters; type: biochemical; parameters: Human thrombin, bovine chymotrypsin; purchased Sigma Chemical Co. (St. Louis, Mo.); details: 37° C.; means of triplicates
Experimental: Measurements of protease activity at 25° C. or 37° C. were performed and analyzed as previously described (Hortin and Trimpe, J. Biol. Chem. 266:6866-6871, 1991) with a Cobas FARA analyzer (Roche Diagnostic Systems, Somerville, N.J.). […] Kinetic parameters were calculated from initial rates of reactions using Lineweaver-Burke plots. […] These reactions were performed in 100 mM tris(hydroxymethyl)-aminomethane pH 7.8 with 10 mm CaCl2. Substrate concentration were determined by absorbance at 342 nm, using an extinction coefficient of 8,260 mol^−1 and several concentrations were confirmed by absorbance measures at 405 or 410 nm after substrate hydrolysis, with extinction coefficient of 9,900 or 8,600 mol^−1, respectively, for the p-nitroaniline product (Lottenberg and Jackson, Biochim. Biophys. Acta 742:558-564, 1983). Molar concentration of chymotrypsin was determined by active site titration with p-nitrophenyl guanidinobenzoate and thrombin concentrations by titration with highly purified hirudin.

trypsin = molecular target: T2, trypsin (Bos taurus, UniProt P00760); experiment: Inhibition of substrate cleavage by α2-macroglobulin, trypsin; type: biochemical, bovine; details: excess inhibitor
T2 construct: purchased Worthington Biochemicals Co. (trypsin); Calbiochem (α2-macroglobulin)
T2 sequence (P00760 24-246): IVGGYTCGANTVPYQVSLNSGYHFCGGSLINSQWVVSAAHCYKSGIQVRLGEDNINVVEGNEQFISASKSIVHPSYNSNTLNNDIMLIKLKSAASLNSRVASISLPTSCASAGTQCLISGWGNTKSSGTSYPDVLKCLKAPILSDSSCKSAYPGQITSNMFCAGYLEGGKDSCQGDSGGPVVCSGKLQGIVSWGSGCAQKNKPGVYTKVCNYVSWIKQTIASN
Experimental: (§2) Measurements of protease activity at 25° C. or 37° C. were performed and analyzed as previously described (Hortin and Trimpe, J. Biol. Chem. 266:6866-6871, 1991) with a Cobas FARA analyzer (Roche Diagnostic Systems, Somerville, N.J.). […] Kinetic parameters were calculated from initial rates of reactions using Lineweaver-Burke plots. […] These reactions were performed in 100 mM tris(hydroxymethyl)-aminomethane pH 7.8 with 10 mm CaCl2. Substrate concentration were determined by absorbance at 342 nm, using an extinction coefficient of 8,260 mol^−1 and several concentrations were confirmed by absorbance measures at 405 or 410 nm after substrate hydrolysis, with extinction coefficient of 9,900 or 8,600 mol^−1, respectively, for the p-nitroaniline product (Lottenberg and Jackson, Biochim. Biophys. Acta 742:558-564, 1983). […] Trypsin concentration was estimated based on weight, assuming 100% activity. For studies of trypsin and thrombin, α2-macro-globulin was pretreated with a 200-fold molar excess of p-amidinophenylmethyl-sulfonylfluoride in order to inactivate any protease trapped within the inhibitor and left at 4° C. for 72 hours before use to allow complete decay of the sulfonylfluoride.

thrombin [2] = molecular target: T1, thrombin; experiment: Inhibition of substrate cleavage by α2-macroglobulin, thrombin; type: biochemical; parameters: Human thrombin, bovine chymotrypsin; purchased Sigma Chemical Co. (thrombin); Calbiochem (α2-macroglobulin); details: excess inhibitor
Experimental: as §2

salivary amylase [3] = molecular target: T3, salivary amylase (Homo sapiens, UniProt P0DUB6); experiment: Amylase assay, Km determination, salivary amylase; type: biochemical; details: 37° C.; HEPES buffer pH 7.15
T3 construct: purchased Sigma (St. Louis, Mo.)
T3 sequence (P0DUB6 16-511): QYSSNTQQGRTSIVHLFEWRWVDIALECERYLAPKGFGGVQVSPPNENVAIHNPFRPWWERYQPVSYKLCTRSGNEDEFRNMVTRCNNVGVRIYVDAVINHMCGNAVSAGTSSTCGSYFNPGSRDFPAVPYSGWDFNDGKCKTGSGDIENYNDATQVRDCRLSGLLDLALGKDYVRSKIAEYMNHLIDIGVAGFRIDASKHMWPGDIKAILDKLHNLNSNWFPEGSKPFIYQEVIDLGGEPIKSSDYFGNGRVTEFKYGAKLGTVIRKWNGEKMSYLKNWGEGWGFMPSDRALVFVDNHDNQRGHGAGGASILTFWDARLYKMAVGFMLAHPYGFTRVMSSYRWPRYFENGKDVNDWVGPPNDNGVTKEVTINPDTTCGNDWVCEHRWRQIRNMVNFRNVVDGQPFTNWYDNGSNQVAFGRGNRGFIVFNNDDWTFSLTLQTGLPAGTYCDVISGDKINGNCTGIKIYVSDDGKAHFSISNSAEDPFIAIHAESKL
Experimental: (§1) Amylase assays using oligosaccharide substrates were automated using a Cobas Fara analyzer (Roche, Basel, Switzerland). Unless indicated, assay temperature was 37° C., and absorbance changes were measured at 405 nm every minute over a 20 minute period. Assay buffer was either 52.5 mmol/L 4-(2-hydroxyethyl)-1-piperazine-ethanesulfonic acid (HEPES) buffer, pH 7.15, 87 mmol/L sodium chloride, 12.6 mmol/L magnesium chloride, 0.075 mmol/L calcium chloride (HEPES buffer) or 50 mmol/L MES, pH 6.0, 350 mmol/L sodium chloride, 6 mmol/L calcium acetate, 900 mmol/L KSCN (MES buffer). Amylases were diluted into assay buffer containing 1 mg/mL rabbit albumin. Final reaction volumes were 200 μL and consisted of 3 solutions, R1, R2, and R3. […] Depending upon the assay, R2 and R3 contained either amylase or substrate. R1 and R2 solutions were mixed for 10 seconds prior to the addition of R3. For immunoinhibition studies, antibodies were preincubated with amylase (R2) for 30 minutes at room temperature prior to the addition of substrate (R3). Unless indicated, final concentrations of MABs were 10 mg/L. Reaction blanks were determined by measuring the absorbance of substrate or enzyme alone at 405 nm. When EtG7pNP or mPEG-EtG7pNP were used as substrates, α-glucosidase was included in the blank measurement. Differences between the test samples and reagent blanks were determined. Activity of stock solutions of amylase was based on activity measured with a Hitachi 917 analyzer using a Roche kit (Cat. No 1876473) (Indianapolis, Ind.) which uses EtG7pNP as the substrate. For Km determinations, 4 or 5 different substrate concentrations (0.05 mmol/L to 6 mmol/L) with salivary (4-20 U/L) or pancreatic (4-40 U/L) amylase were used.

pancreatic amylase [4] = molecular target: T4, pancreatic amylase (Homo sapiens, UniProt P04746); experiment: Immunoinhibition by MABs, pancreatic amylase, oligosaccharide substrates; type: biochemical; details: pancreatic isoenzyme, 40 U/I (G5, G7 substrates) or 400 U/I (G3 substrates), 100% = no MAB
T4 construct: purchased Scripps Laboratories (San Diego, Calif.)
T4 sequence (P04746 16-511): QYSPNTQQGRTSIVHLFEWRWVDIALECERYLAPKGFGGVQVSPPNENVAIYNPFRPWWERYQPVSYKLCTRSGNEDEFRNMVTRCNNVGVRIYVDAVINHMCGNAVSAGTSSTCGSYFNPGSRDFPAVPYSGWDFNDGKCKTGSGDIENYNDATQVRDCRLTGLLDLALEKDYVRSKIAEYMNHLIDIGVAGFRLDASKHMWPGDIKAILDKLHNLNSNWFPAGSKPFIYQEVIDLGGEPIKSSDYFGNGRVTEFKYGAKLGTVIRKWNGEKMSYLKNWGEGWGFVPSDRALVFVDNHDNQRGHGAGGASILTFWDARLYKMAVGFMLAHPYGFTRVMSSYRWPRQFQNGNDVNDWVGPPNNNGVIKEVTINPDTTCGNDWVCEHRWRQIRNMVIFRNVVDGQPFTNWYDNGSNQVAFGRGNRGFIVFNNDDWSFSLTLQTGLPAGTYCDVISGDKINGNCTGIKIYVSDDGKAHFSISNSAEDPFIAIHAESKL
Experimental: as §1

pancreatic amylase [5] = molecular target: T4, pancreatic amylase; experiment: Amylase assay, Km determination, pancreatic amylase; type: biochemical; details: 37° C.; HEPES buffer pH 7.15
Experimental: as §1, with “Assay buffer was either 52.5 mmol/L 4-(2-hydroxyethyl)-1-piperazine-ethanesulfonic acid (HEPES) buffer, pH 7.15, 87 mmol/L sodium chloride, 12.6 mmol/L magnesium chloride, 0.075 mmol/L calcium chloride (HEPES buffer) or 50 mmol/L MES, pH 6.0, 350 mmol/L sodium chloride, 6 mmol/L calcium acetate, 900 mmol/L KSCN (MES buffer).” left out

salivary amylase [6] = molecular target: T3, salivary amylase; experiment: Immunoinhibition by MABs, salivary amylase, oligosaccharide substrates; type: biochemical; details: salivary isoenzyme, 20 U/I (G5, G7 substrates) or 600 U/I (G3 substrates), 100% = no MAB
Experimental: as §1
When both MABs were used, MAB 88E8 concentrations were varied in the presence of 10 mg/L MAB 66C7. At an antibody concentration of 10 mg/L, MAB 88E8 inhibits 98% of salivary amylase activity in HEPES buffer and 34% of salivary amylase activity in MES buffer. MAB 66C7 increases salivary amylase activity in HEPES buffer and has no effect on salivary amylase activity in MES buffer. Using a mixture of MABs 88E8 and 66C7 at concentrations of […], >99% of salivary amylase activity is inhibited in HEPES buffer and 73% of salivary amylase activity is inhibited in MES buffer. When the pH of the MES buffer was increased from 6.0 to 6.5 and the concentration of KSCN was decreased from 900 mmol/L to 300 mmol/L, >97% of salivary amylase activity was inhibited by MAB 88E8.

chymotrypsin = chymotrypsin (Bos taurus, UniProt P00766); experiment: Inhibition of substrate cleavage by α2-macroglobulin, chymotrypsin
Experimental: Measurements of protease activity at 25° C. or 37° C. were performed and analyzed as previously described (Hortin and Trimpe, J. Biol. Chem. 266:6866-6871, 1991) with a Cobas FARA analyzer (Roche Diagnostic Systems, Somerville, N.J.). […] Kinetic parameters were calculated from initial rates of reactions using Lineweaver-Burke plots. […] These reactions were performed in 100 mM tris(hydroxymethyl)-aminomethane pH 7.8 with 10 mm CaCl2. Substrate concentration were determined by absorbance at 342 nm, using an extinction coefficient of 8,260 mol^−1 and several concentrations were confirmed by absorbance measures at 405 or 410 nm after substrate hydrolysis, with extinction coefficient of 9,900 or 8,600 mol^−1, respectively, for the p-nitroaniline product (Lottenberg and Jackson, Biochim. Biophys. Acta 742:558-564, 1983). Molar concentration of chymotrypsin was determined by active site titration with p-nitrophenyl guanidinobenzoate and thrombin concentrations by titration with highly purified hirudin. Trypsin concentration was estimated based on weight, assuming 100% activity. For studies of trypsin and thrombin, α2-macro-globulin was pretreated with a 200-fold molar excess of p-amidinophenylmethyl-sulfonylfluoride in order to inactivate any protease trapped within the inhibitor and left at 4° C. for 72 hours before use to allow complete decay of the sulfonylfluoride.

[7] = tested on: C[C@H](NC(=O)CCC(=O)O)C(=O)N[C@@H](C)C(=O)N1CCC[C@H]1C(=O)N[C@@H](Cc1ccccc1)C(=O)Nc1ccc([N+](=O)[O-])cc1; experiment: purified protein, by the assay type; details: other: 37° C., means of triplicates, pH 7.8
20S proteasomes = molecular target: T5, 20S proteasomes (Methanosarcina thermophila, UniProt Q9P992); experiment: Substrate cleavage by 20S proteasomes; type: biochemical
T5 construct: purchased Calbiochem (La Jolla, Calif.); host or cells: Escherichia coli
T5 sequence (Q9P992 10-210): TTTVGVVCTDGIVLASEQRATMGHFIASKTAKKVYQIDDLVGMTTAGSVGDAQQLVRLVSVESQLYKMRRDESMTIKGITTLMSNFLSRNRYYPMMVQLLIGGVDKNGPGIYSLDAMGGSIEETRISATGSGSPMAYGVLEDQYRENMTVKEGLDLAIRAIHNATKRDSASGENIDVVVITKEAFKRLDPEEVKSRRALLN
T5 sequence (Q59565 1-247 partner): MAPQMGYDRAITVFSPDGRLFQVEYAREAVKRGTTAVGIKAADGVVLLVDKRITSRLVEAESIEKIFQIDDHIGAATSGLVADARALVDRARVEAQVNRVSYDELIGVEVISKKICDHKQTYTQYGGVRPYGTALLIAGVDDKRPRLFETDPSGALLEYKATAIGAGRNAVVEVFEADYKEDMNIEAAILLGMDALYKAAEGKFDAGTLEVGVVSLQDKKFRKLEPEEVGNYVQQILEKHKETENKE
Experimental: Enzyme assays. Assays of proteasome activity were performed at 37° C. unless otherwise indicated. […] Reactions were in a buffer consisting of 100 mM Tris(hydroxymethyl)aminomethane, pH 7.2 with 1 mM dithiothreitol.

CC(=O)N[C@H](Cc1ccccc1)C(=O)N1CCCC[C@H]1C(=O)N[C@@H](CCCNC(=N)N)C(=O)Nc1ccc([N+](=O)[O-])cc1 [Ac-D-Phe-Pip-Arg-pNA] gave a Km (thrombin [1]) of 23 µM and a kcat (thrombin [1]) of 3.0 S^−1.
With CC[C@@H](C)[C@@H](N)C(=O)N1CCC[C@H]1C(=O)N[C@@H](CCCNC(=N)N)C(=O)Nc1ccc([N+](=O)[O-])cc1 [D-Ile-Pro-Arg-pNA] (H-[dI]-Pro-Arg-pNA) the “Inhibition of trypsin activity by excess α2-macroglobulin” value (trypsin) was 40-50%, the Km (thrombin [1]) was 12 µM and the kcat (thrombin [1]) was 105 S^−1.
With N=C(N)NCCC[C@H](NC(=O)[C@@H]1CCCCN1C(=O)[C@H](N)Cc1ccccc1)C(=O)Nc1ccc([N+](=O)[O-])cc1 [D-Phe-Pip-Arg-pNA] the Km (thrombin [1]) was 6.1 µM, the kcat (thrombin [1]) was 65 S^−1 and the “Inhibition of thrombin activity by excess α2-macroglobulin” value (thrombin [2]) was 40-50%.
In the case of O=[N+]([O-])c1ccc(OC2OC(CO)C(OC3OC(CO)C(OC4OC(CO)C(OC5OC(CO)C(OC6OC(CO)C(O)C(O)C6O)C(O)C5O)C(O)C4O)C(O)C3O)C(O)C2O)cc1 [Substrate G5pNP, p-nitrophenyl-α-D-maltopentaoside], the Km (salivary amylase [3]) is reported as 400 µM, the “% activity with MAB 88E8 + 66C7” value (pancreatic amylase [4]) is reported as 95% and the “% activity with MAB 66C7” value (pancreatic amylase [4]; MAB 10 mg/L) is reported as 103%. For the same compound, the “% activity with MAB 88E8” value (pancreatic amylase [4]; MAB 10 mg/L) was 101%, the Km (pancreatic amylase [5]) was 280 µM and the “% activity with MAB 88E8 + 66C7” value (salivary amylase [6]) was 2%. For the same compound, the “% activity with MAB 66C7” value (salivary amylase [6]; MAB 10 mg/L) was 105% and the “% activity with MAB 88E8” value (salivary amylase [6]; MAB 10 mg/L) was 6%.
With C[C@H](NC(=O)CCC(=O)O)C(=O)N[C@@H](C)C(=O)N1CCC[C@H]1C(=O)N[C@@H](Cc1ccccc1)C(=O)Nc1ccc([N+](=O)[O-])cc1 [Suc-Ala-Ala-Pro-Phe-pNA, succinyl-Ala-Ala-Pro-Phe-pNA] (Suc-AAPF-pNA) the “Maximal inhibition of chymotrypsin activity by excess α2-macroglobulin” value (chymotrypsin; increasing α2-macroglobulin added to a fixed amount of chymotrypsin) was “about 60%”.
Work on bovine chymotrypsin (Bos taurus) yielded a Km [7] of 40 µM, a kcat [7] of 120 s⁻¹ and a kcat/Km [7] of 3e+06 M⁻¹ s⁻¹.
“succinyl-Ala-Ala-Phe-p-nitroanilide [Suc-Ala-Ala-Phe-pNA]” was tested, and the “Rate of substrate cleavage by 20s proteasomes” value (20S proteasomes; each substrate at 1 mM, 37° C., mean ± SD) was 0.0061 ± 0.0001 ΔA405/10 min, the “Rate of cleavage greater than Ala-Ala-Phe-pNA” value (20S proteasomes; substrate 0.5-3 mM, 30-50° C.) was 50-100% and the “Rate Plus α2-M” value (chymotrypsin; chymotrypsin 2.5 μg/ml, 0.5 mM substrate, after incubation with excess α2-macroglobulin (250 μ/ml), means ± SD) was 12.3 ± 0.1 µmol/L/min. The “Rate Minus α2-M” value (chymotrypsin; chymotrypsin 2.5 μg/ml, 0.5 mM substrate, before incubation with α2-macroglobulin, means ± SD) was 21.7 ± 0.2 µmol/L/min and the “Inhibition of substrate cleavage by α2-macroglobulin” value (chymotrypsin; chymotrypsin 2.5 μg/ml, 0.5 mM substrate, excess α2-macroglobulin) was 43%.
